Measurements reported in patent US11098052B2, “4-azapodophylotoxins compounds” (Arizona Board of Regents on behalf of Arizona State …, priority 2016, dated 2021).
Converted amounts (≈) assume the structure as drawn.

Columns and labels:
SF-268 (CNS) = experiment: Human cancer cell growth inhibition, sulforhodamine B assay, SF-268; assay type: cell-based; conditions: SF-268, 48 h, read-out: Growth Inhibition of Human Cancer Cell Lines (GI50), SF-268
Method: (§1) Cancer Cell Line Procedures. The human cancer cell growth inhibition data were determined using the standard sulforhodamine B assay of the US National Cancer Institute as previously described.^35 In short, cells in a 5% fetal bovine serum/RPMI1640 medium were inoculated in 96-well plates and incubated for 24 h. Next, serial dilutions of the samples were added. After 48 h, the plates were fixed with trichloroacetic acid, stained with sulforhodamine B, and read with an automated microplate reader. A growth inhibition of 50% (GI50 or the drug concentration causing a 50% reduction in the net protein increase) was determined from optical density data employing Immunosoft® software.

MCF-7 (breast) = experiment: Human cancer cell growth inhibition, sulforhodamine B assay, MCF-7; assay type: cell-based; conditions: MCF7, 48 h, read-out: Growth Inhibition of Human Cancer Cell Lines (GI50), MCF-7
Method: as §1

NCI-H460 (lung) = experiment: Human cancer cell growth inhibition, sulforhodamine B assay, NCI-H460; assay type: cell-based; conditions: NCI-H460, 48 h, read-out: Growth Inhibition of Human Cancer Cell Lines (GI50), NCI-H460
Method: as §1

BXPC-3 (pancreas) = experiment: Human cancer cell growth inhibition, sulforhodamine B assay, BXPC-3; assay type: cell-based; conditions: BXPC-3, 48 h, read-out: Growth Inhibition of Human Cancer Cell Lines (GI50), BXPC-3
Method: as §1

DU-145 (prostate) = experiment: Human cancer cell growth inhibition, sulforhodamine B assay, DU-145; assay type: cell-based; conditions: DU-145, 48 h, read-out: Growth Inhibition of Human Cancer Cell Lines (GI50), DU-145
Method: as §1

[1] = test system: P388 murine lymphocytic leukemia cell line; experiment: Murine P388 lymphocytic leukemia inhibitory activity; assay type: cell-based; conditions: Mus musculus, P388, read-out: Murine P388 Lymphocytic Leukemia Inhibitory Activity (ED50)
KM20L2 (colon) = experiment: Human cancer cell growth inhibition, sulforhodamine B assay, KM20L2; assay type: cell-based; conditions: KM-20L2, 48 h, read-out: Growth Inhibition of Human Cancer Cell Lines (GI50), KM20L2
Method: as §1

SMILES	GI50 (SF-268 (CNS)) [µg/mL]	GI50 (MCF-7 (breast)) [µg/mL]	GI50 (NCI-H460 (lung)) [µg/mL]	GI50 (BXPC-3 (pancreas)) [µg/mL]	GI50 (DU-145 (prostate)) [µg/mL]	IC50 [1] [µg/mL]	melting point [°C]	GI50 (KM20L2 (colon)) [µg/mL]
COc1cc(C2C3=C(COC3=O)Nc3cc(OC)c(OC)c(OC)c32)cc(OC)c1OC (stereo not shown) [Compound 15, 6,7,8-Trimethoxy-9-(3,4,5-trimethoxyphenyl)-4,9-dihydro-3H-furo[3,4-b]quinolin-1-one]	3.6 (≈ 8.12 µM)	1.7 (≈ 3.83 µM)	3.6 (≈ 8.12 µM)	5.6 (≈ 12.6 µM)	3.3 (≈ 7.44 µM)	1.3 (≈ 2.93 µM)	137 to 139	–
O=C1OCC2=C1C(c1cccc3c1OCO3)c1cc3c(cc1N2)OCO3 (stereo not shown) [Compound 15d, 6,7-Methylenedioxy-9-(2,3-methylenedioxyphenyl)-4,9-dihydro-3H-furo[3,4-b]quinolin-1-one]	0.0089 (≈ 0.0253 µM)	0.0039 (≈ 0.0111 µM)	0.021 (≈ 0.0598 µM)	0.065 (≈ 0.185 µM)	0.041 (≈ 0.117 µM)	0.17 (≈ 0.484 µM)	324 to 327	–
COc1cc(C2C3=C(COC3=O)Nc3cc(OC)c(OC)c(OC)c32)cc(Br)c1OC (stereo not shown) [Compound 15a, 6,7,8-Trimethoxy-9-(3-bromo-4,5-trimethoxyphenyl)-4,9-dihydro-3H-furo[3,4-b]quinolin-1-one]	0.11 (≈ 0.223 µM)	0.12 (≈ 0.244 µM)	0.35 (≈ 0.711 µM)	0.56 (≈ 1.14 µM)	0.42 (≈ 0.853 µM)	0.11 (≈ 0.223 µM)	175 to 177	–
COc1cc(C2C3=C(COC3=O)Nc3cc4c(cc32)OCO4)cc(OC)c1O (stereo not shown) [Compound 29, 6,7-Methylenedioxy-9-(4-hydroxy-3,5-dimethoxy-phenyl)-4,9-dihydro-3H-furo[3,4-b]quinolin-1-one]	0.026 (≈ 0.0678 µM)	0.025 (≈ 0.0652 µM)	0.027 (≈ 0.0704 µM)	0.028 (≈ 0.073 µM)	0.033 (≈ 0.0861 µM)	0.028 (≈ 0.073 µM)	–	0.032 (≈ 0.0835 µM)
COc1cc(C2C3=C(COC3=O)N(C)c3cc4c(cc32)OCO4)cc(OC)c1OC (stereo not shown) [Compound 16, 6,7-Methylenedioxy-4-methyl-9-(3,4,5-trimethoxyphenyl)-4,9-dihydro-3H-furo[3,4-b]quinolin-1-one]	0.029 (≈ 0.0705 µM)	0.034 (≈ 0.0826 µM)	0.032 (≈ 0.0778 µM)	0.049 (≈ 0.119 µM)	0.026 (≈ 0.0632 µM)	0.027 (≈ 0.0656 µM)	–	0.032 (≈ 0.0778 µM)
COc1cc(C2C3=C(COC3=O)N(Cc3ccco3)c3cc4c(cc32)OCO4)cc(OC)c1O (stereo not shown) [Compound 32, 6,7-Methylenedioxy-4-(furan-2-ylmethyl)-9-(4-hydroxy-3,5-dimethoxy-phenyl)-4,9-dihydro-3H-furo[3,4-b]quinolin-1-one]	0.061 (≈ 0.132 µM)	0.054 (≈ 0.117 µM)	0.24 (≈ 0.518 µM)	1 (≈ 2.16 µM)	0.39 (≈ 0.842 µM)	0.89 (≈ 1.92 µM)	–	–
COc1ccc(C2C3=C(COC3=O)Nc3cc(OC)c(OC)c(OC)c32)cc1O (stereo not shown) [Compound 15c, 6,7,8-Trimethoxy-9-(3-hydroxy-4-methoxyphenyl)-4,9-dihydro-3H-furo[3,4-b]quinolin-1-one]	7.3 (≈ 18.3 µM)	7 (≈ 17.5 µM)	10.1 (≈ 25.3 µM)	6.5 (≈ 16.3 µM)	> 10	0.78 (≈ 1.95 µM)	–	–
COc1ccc(C2C3=C(COC3=O)Nc3cc(OC)c(OC)c(OC)c32)cc1O[Si](C)(C)C(C)(C)C (stereo not shown)	–	–	–	–	–	–	169 to 171	–
COc1cc(C2C3=C(COC3=O)N(C3CCCC3)c3cc4c(cc32)OCO4)cc(OC)c1O (stereo not shown) [Compound 30, 6,7-Methylenedioxy-4-(cyclopentyl)-9-(4-hydroxy-3,5-dimethoxy-phenyl)-4,9-dihydro-3H-furo[3,4-b]quinolin-1-one]	0.39 (≈ 0.864 µM)	0.32 (≈ 0.709 µM)	0.33 (≈ 0.731 µM)	0.53 (≈ 1.17 µM)	0.41 (≈ 0.908 µM)	30.3 (≈ 67.1 µM)	–	2.1 (≈ 4.65 µM)
COc1cc(C2C3=C(COC3=O)N(CCc3ccc(F)cc3)c3cc4c(cc32)OCO4)cc(OC)c1O (stereo not shown) [Compound 31, 6,7-Methylenedioxy-4-[2-(4-fluorophenyl)-ethyl]-9-(4-hydroxy-3,5-dimethoxy-phenyl)-4,9-dihydro-3H-furo[3,4-b]quinolin-1-one]	0.48 (≈ 0.95 µM)	0.34 (≈ 0.673 µM)	0.36 (≈ 0.712 µM)	1.4 (≈ 2.77 µM)	0.38 (≈ 0.752 µM)	0.21 (≈ 0.415 µM)	–	–
